Results reported in patent US7138361B2, “Herbicidal heterocycles” (E. I. du Pont de Nemours and Company, priority 2000, dated 2006).

Assays:
Format in all cases: in vivo
[1] = tested on: yellow nutsedge (Cyperus esculentus); assay: Test C preemergence
Outline: (§1)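 Test chemicals, formulated in a non-phytotoxic solvent mixture with surfactant, were applied preemergence to planted seeds or postemergence to plants 2 to 18 cm tall (1- to 4-leaf stage). After 12 to 14 days in a greenhouse, injury was visually rated against untreated controls on a 0–100 scale.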

[2] = tested on: cocklebur (Xanthium strumarium); assay: Test C preemergence
Outline: as §1

[3] = tested on: lambsquarters (Chenopodium album); assay: Test C preemergence
Outline: as §1

Sunflower [4] = assay: Test C preemergence
corn (Zea mays) = assay: Test C preemergence
Outline: as §1

[5] = tested on: common ragweed (Ambrosia elatior); assay: Test C preemergence
Outline: as §1

[6] = tested on: johnsongrass (Sorghum halepense); assay: Test C preemergence
Outline: as §1

[7] = tested on: goosegrass (Eleusine indica); assay: Test C preemergence
Outline: as §1

[8] = tested on: bermudagrass (Cynodon dactylon); assay: Test C preemergence
Outline: as §1

soybean (Glycine max) = assay: Test C preemergence
Outline: as §1

[9] = tested on: crabgrass (Digitaria sanguinalis); assay: Test C preemergence
Outline: as §1

[10] = tested on: Surinam grass (Brachiaria decumbens); assay: Test C preemergence
Outline: as §1

[11] = tested on: morningglory (Ipomoea hederacea); assay: Test C preemergence
Outline: as §1

kochia (Kochia scoparia) = assay: Test C preemergence
Outline: as §1

Nightshade = assay: Test C preemergence
[12] = tested on: giant foxtail (Setaria faberii); assay: Test C preemergence
Outline: as §1

[13] = tested on: velvetleaf (Abutilon theophrasti); assay: Test C preemergence
Outline: as §1

[14] = tested on: pigweed (Amaranthus retroflexus); assay: Test C preemergence
Outline: as §1

[15] = tested on: woolly cupgrass (Eriochloa villosa); assay: Test C preemergence
Outline: as §1

rice (Oryza saliva) = assay: Test C flooded paddy test; settings: for Rice plant response rating: Flooded Paddy, scale 0 to 100, 0 no effect, 100 complete control; for Plant response rating, Rice: flooded paddy test, scale 0 to 100 (0 no effect, 100 complete control)
Outline: (§2)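 Each species was cultivated to 2 leaves in flooded paddy pots, then treated. After a greenhouse period of 12–14 days, the plants were scored visually relative to controls from 0 (no effect) to 100 (complete control).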

[16] = tested on: barnyardgrass (Echinochloa crus-galli); assay: Test C flooded paddy test; settings: for Barnyardgrass plant response rating: Flooded Paddy, scale 0 to 100, 0 no effect, 100 complete control; for Plant response rating, Barnyardgrass: flooded paddy test, scale 0 to 100 (0 no effect, 100 complete control)
Outline: as §2

Sunflower [17] = assay: Test C preemergence; settings: Rate 250 g/ha, visual evaluation after 12 to 14 days
[18] = Preemergence, Rate 500 g/ha, scale 0 to 100
[19] = Rate 62 g/ha, scale 0 to 100, 0 no effect, 100 complete control
[20] = preemergence, Rate 250 g/ha, visual evaluation after 12 to 14 days
[21] = preemergence, Rate 125 g/ha, scale 0 to 100, 0 no effect, 100 complete control

## CC(C)c1ccn(C2SCN(c3cccc(OC(F)F)c3)C2=O)n1 (stereo not drawn) [Compound 44]
[1]; [18]
  Plant response rating, Nutsedge: 100
[1]; [19]
  Plant response rating, Nutsedge: 0
[1]; [20]
  Plant response rating (0 to 100), Nutsedge: 60
[1]; [21]
  Plant response rating, Nutsedge: 30
[2]; [18]
  Plant response rating, Cocklebur: 100
[2]; [20]
  Plant response rating (0 to 100), Cocklebur: 30
[2]; [21]
  Plant response rating, Cocklebur: 0
[3]; [18]
  Plant response rating, Lambsquarters: 100
[3]; [19]
  Plant response rating, Lambsquarters: 100
[3]; [20]
  Plant response rating (0 to 100), Lambsquarters: 100
[3]; [21]
  Plant response rating, Lambsquarters: 100
Sunflower [4]; [19]
  Plant response rating, Sunflower: 0
Sunflower [4]; Rate 500 g/ha, scale 0 to 100
  Plant response rating, Sunflower: 30
Corn (Zea mays); [18]
  Plant response rating, Corn: 70
Corn (Zea mays); [19]
  Plant response rating, Corn: 0
Corn (Zea mays); [20]
  Plant response rating (0 to 100), Corn: 0
Corn (Zea mays); [21]
  Plant response rating, Corn: 0
[5]; [18]
  Plant response rating, Ragweed, Common: 50
[5]; [19]
  Plant response rating, Ragweed, Common: 0
[5]; [20]
  Plant response rating (0 to 100), Ragweed, Common: 50
[5]; [21]
  Plant response rating, Ragweed, Common: 0
[6]; [18]
  Plant response rating, Johnsongrass: 100
[6]; [19]
  Plant response rating, Johnsongrass: 0
[6]; [20]
  Plant response rating (0 to 100), Johnsongrass: 90
[6]; [21]
  Plant response rating, Johnsongrass: 60
[7]; [18]
  Plant response rating, Goosegrass: 100
[7]; [19]
  Plant response rating, Goosegrass: 90
[7]; [20]
  Plant response rating (0 to 100), Goosegrass: 100
[7]; [21]
  Plant response rating, Goosegrass: 100
[8]; [18]
  Plant response rating, Bermudagrass: 100
[8]; [19]
  Plant response rating, Bermudagrass: 90
[8]; [20]
  Plant response rating (0 to 100 where 0 is no effect and 100 is complete control), Bermudagrass: 100
[8]; [21]
  Plant response rating, Bermudagrass: 100
Soybean (Glycine max); [18]
  Plant response rating, Soybean: 30
Soybean (Glycine max); [19]
  Plant response rating, Soybean: 0
Soybean (Glycine max); [20]
  Plant response rating (0 to 100), Soybean: 30
Soybean (Glycine max); [21]
  Plant response rating, Soybean: 0
[9]; [18]
  Plant response rating, Crabgrass: 100
[9]; [19]
  Plant response rating, Crabgrass: 100
[9]; [20]
  Plant response rating (0 to 100), Crabgrass: 100
[9]; [21]
  Plant response rating, Crabgrass: 100
[10]; [18]
  Plant response rating, Surinam grass: 90
[10]; [19]
  Plant response rating, Surinam grass: 0
[10]; [20]
  Plant response rating (0 to 100), Surinam grass: 80
[10]; [21]
  Plant response rating, Surinam grass: 80
[11]; [18]
  Plant response rating, Morningglory: 40
[11]; [19]
  Plant response rating, Morningglory: 0
[11]; [20]
  Plant response rating (0 to 100), Morningglory: 20
[11]; [21]
  Plant response rating, Morningglory: 0
Kochia (Kochia scoparia); [18]
  Plant response rating, Kochia: 100
Kochia (Kochia scoparia); [19]
  Plant response rating, Kochia: 70
Kochia (Kochia scoparia); [20]
  Plant response rating (0 to 100), Kochia: 100
Kochia (Kochia scoparia); [21]
  Plant response rating, Kochia: 100
Nightshade; [19]
  Plant response rating, Nightshade: 0
Nightshade; Rate 125 g/ha, scale 0 to 100, 0 no effect, 100 complete control
  Plant response rating, Nightshade: 0
Nightshade; Rate 500 g/ha, scale 0 to 100
  Plant response rating, Nightshade: 30
[12]; [18]
  Plant response rating, Foxtail, Giant: 90
[12]; [19]
  Plant response rating, Foxtail, Giant: 0
[12]; [20]
  Plant response rating (0 to 100), Foxtail, Giant: 100
[12]; [21]
  Plant response rating, Foxtail, Giant: 100
[13]; [18]
  Plant response rating, Velvetleaf: 60
[13]; [19]
  Plant response rating, Velvetleaf: 0
[13]; [20]
  Plant response rating (0 to 100), Velvetleaf: 20
[13]; [21]
  Plant response rating, Velvetleaf: 0
[14]; [18]
  Plant response rating, Pigweed: 100
[14]; [19]
  Plant response rating, Pigweed: 0
[14]; [20]
  Plant response rating (0 to 100), Pigweed: 20
[14]; [21]
  Plant response rating, Pigweed: 0
[15]; [18]
  Plant response rating, Cupgrass, Woolly: 100
[15]; [19]
  Plant response rating, Cupgrass, Woolly: 30
[15]; [20]
  Plant response rating (0 to 100), Cupgrass, Woolly: 100
[15]; [21]
  Plant response rating, Cupgrass, Woolly: 90
Rice (Oryza saliva); Rate 250 g/ha
  Rice plant response rating: 90
Rice (Oryza saliva); Rate 500 g/ha
  Rice plant response rating: 90
Rice (Oryza saliva); Rate 62 g/ha
  Plant response rating, Rice: 80
Rice (Oryza saliva); Rate 125 g/ha
  Plant response rating, Rice: 80
[16]; Rate 250 g/ha
  Barnyardgrass plant response rating: 100
[16]; Rate 500 g/ha
  Barnyardgrass plant response rating: 100
[16]; Rate 62 g/ha
  Plant response rating, Barnyardgrass: 90
[16]; Rate 125 g/ha
  Plant response rating, Barnyardgrass: 100
Sunflower [17]
  Plant response rating (0 to 100), Sunflower: 20
